Columns and labels:
PANC-1 cells = assay: Cell cycle analysis (PI, flow cytometry), PANC-1; assay type: cell-based, human
Protocol: For cell cycle analysis, BXPC-3 and PANC-1 and JIMT-1 cells (100,000/well) were seeded overnight in a 6 well dishes and allowed to adhere overnight. Media was replaced with fresh complete medium supplemented with DMSO or UR214-9 (100 nM and 3 μM) and cells were incubated for 72 hours. The media containing the drugs was removed and cells were washed twice with PBS and trypsinized gently. The cells were collected in 15 mL tubes, complete DMEM media was added to block trypsin and cells were centrifuged. The supernatants were removed and cells were gently treated with 70% cold-EtOH for 30 minutes. The fixed cells were centrifuged and the pellets obtained were collected in flow cytometry tubes and stained with preformulated PI/RNase solution (Cell Signaling Technology, catalog number: 4087s) for 30 minutes. The PI content was analyzed using a flow cytometer. Data was processed using Flowjo software.

HE4 mRNA = assay: HE4 expression by real time PCR; assay type: cell-based; conditions: ECC-1, 300 μM, 5 hours, normalized to B2M
Protocol: Cell lines, Culture, and Reagents. Cells were maintained in either DMEM (SKOV-3, KLE, OVCAR-3, OVCAR8-C5 and IGROV-1) or RPMI-1640 (ECC-1 and HCH-1), supplemented with 10% fetal calf serum (or 20% for OVCAR-3), penicillin (100 units/mL), and streptomycin (100 μg/mL) at 37° C. with 5% CO2 in a humidified incubator. Antibodies were purchased from Abcam (septin-2; ab179436) and Cell Signaling Technology; ERK (9102), p-ERK (4370), -actin (3700), u-Tubulin (2144), EGFR (4267) and HER2 (4290). FCF was purchased from Abcam. All other chemicals were from Sigma Aldrich. Synthesis of Derivaties. […] The reaction was monitored using thin-layer chromatography plates with DCM-MeOH or pure ethyl acetate as eluent. Spots were monitored in a UV chamber. […] Quantitative Real-Time PCR. […] Quantitative real-time PCR was conducted using QuantStudio 12 K Flex Real-Time PCR System (ABI) and the Taqman Gene Expression Assay (ABI) consisting of the FAM-labeled probes as follows: SEPT2 (Hs01565417_ml); WFDC2 (Hs00899484_ml); TBP (Hs00427620_ml) or B2M (Hs00187842_ml), which was used as reference for normalization. […] Cell viability, proliferation, and cellular apoptosis were measured using the MTS (Promega), BrdU cell proliferation (Cell Signaling Technology), and Caspase-Glo 3/7 apoptosis detection (Promega) assays, following the respective manufacturer's recommendations with suitable modification. […]

Compound	cell cycle distribution (PANC-1 cells; PANC-1, 100 nM)	cell cycle distribution (PANC-1 cells; PANC-1, 3 μM)	HE4 mRNA (HE4 mRNA)
O=C(Nc1cc(Cl)nc(Cl)c1)Nc1cccc(SC(F)(F)F)c1F [UR214-9]	minor S-phase arrest	complete arrest in sub-G1/G0 phase	
O=C(Nc1ccccc1)Nc1ccnc(Cl)c1 [FCF, N-(2-chloro-4-pyridyl)-N′-phenylurea, reference compound]			suppress HE4 mRNA to some extent

Reference: patent US12433876B2, “Septin inhibitors for treatment of cancers” (UNIVERSITY OF ROCHESTER, priority 2019, dated 2025)
